Structures are written as SMILES. Read-outs that look alike come from different tables or passages of the source.

Experiment [1] relates to Puccinia recondita. Kind of experiment: Fungicidal activity against Wheat Leaf Rust (WLR) disease. Format: in vivo. The settings on record: Wheat Leaf Rust.
Experiment [2] relates to Botrytis cinerae. Kind of experiment: Fungicidal activity against Cucumber Gray Mold Rot (CGM) disease. The settings on record: Cucumber Gray Mold Rot; concentration 50 ppm. The experiment is classed as in vivo. The procedure:
Botrytis cinerae, which was isolated from cucumber infected thereby, was inoculated on a PDA agar medium and cultured under a 12L/12D cycle at 25° C. for 15 days to form spore. The spores were scraped, filtered through a gauze and then suspended in potato dextrose liquid medium at a concentration of 1×10^6 spore/ml. The spore suspension was sprayed on a cucumber plant having one leaf. The cucumber plant was held in a humidified room at 20° C. for 3 days. L.A. on a leaf was measured to calculate an C.V.

In experiment [3] the test system is Pyricularia oryzae Carvara KA301. Format: in vivo. To be noted: Rice Blast.
In experiment [4] the test system is Phytophthora infestans. The experiment is classed as in vivo. To be noted: Tomato Late Blight; concentration 50 ppm.
Experiment [5] deals with Erysiphae graminis. Kind of experiment: Fungicidal activity against Barley Powdery Mildew (BPM) disease. Format: in vivo. To be noted: Barley Powdery Mildew.
In experiment [6] the test system is Rhizoctonia solani AG-1. Kind of experiment: Fungicidal activity against Rice Sheath Blight (RSB) disease. To be noted: Rice Sheath Blight.

Turning to `COC=C(C(=O)OC)c1ccccc1CON=C(C)c1cccc(OC(F)=Cc2ccc(C)cc2)c1` [Compound 42], the “WLR (Fungicidal Activities, C.V.)” value in experiment [1] (concentration 2 ppm) is listed as 98%; in experiment [1] (concentration 10 ppm), 100%; in experiment [1] (concentration 50 ppm), 100%. Further, the “CGM (Fungicidal Activities, C.V.)” value in experiment [2] is 64%. In addition, the “RCV (Fungicidal Activities, C.V.)” value in experiment [3] (concentration 2 ppm) worked out at 58%; in experiment [3] (concentration 10 ppm), 96%; in experiment [3] (concentration 50 ppm), 100%. In addition, the “TLB (Fungicidal Activities, C.V.)” value in experiment [4] came out at 97%. Moreover, the “BPM (Fungicidal Activities, C.V.)” value in experiment [5] (concentration 2 ppm), in experiment [5] (concentration 10 ppm) and in experiment [5] (concentration 50 ppm) was 100% throughout. In experiment [6] (concentration 50 ppm), the “RSB (Fungicidal Activities, C.V.)” value was 70%.
For `COC=C(C(=O)OC)c1ccccc1CON=C(C)c1cccc(OC(F)=Cc2cc(C)cc(C)c2)c1` [Compound 44], the “WLR (Fungicidal Activities, C.V.)” value amounted to 96% in experiment [1] (concentration 2 ppm), 100% in experiment [1] (concentration 10 ppm) and 100% in experiment [1] (concentration 50 ppm). Also, in experiment [2], the “CGM (Fungicidal Activities, C.V.)” value was found to be 5%. Also, the “RCV (Fungicidal Activities, C.V.)” value amounted to 85% in experiment [3] (concentration 2 ppm), 95% in experiment [3] (concentration 10 ppm) and 100% in experiment [3] (concentration 50 ppm). Moreover, the “TLB (Fungicidal Activities, C.V.)” value in experiment [4] worked out at 71%. Moreover, the “BPM (Fungicidal Activities, C.V.)” value in experiment [5] (concentration 2 ppm), in experiment [5] (concentration 10 ppm) and in experiment [5] (concentration 50 ppm) was 100% throughout. Further, in experiment [6] (concentration 50 ppm), the “RSB (Fungicidal Activities, C.V.)” value was 75%.
For `CCc1ccc(C=C(F)Oc2cccc(C(C)=NOCc3ccccc3C(=COC)C(=O)OC)c2)cc1` [Compound 45], the “WLR (Fungicidal Activities, C.V.)” value in experiment [1] (concentration 2 ppm) is 95%; in experiment [1] (concentration 10 ppm), 100%; in experiment [1] (concentration 50 ppm), 100%. Further, in experiment [2], the “CGM (Fungicidal Activities, C.V.)” value was 17%. Also, the “RCV (Fungicidal Activities, C.V.)” value in experiment [3] (concentration 2 ppm) is 41%; in experiment [3] (concentration 10 ppm), 93%; in experiment [3] (concentration 50 ppm), 97%. Besides, in experiment [4], the “TLB (Fungicidal Activities, C.V.)” value is 85%. The “BPM (Fungicidal Activities, C.V.)” value in experiment [5] (concentration 2 ppm) is on record as 99%; in experiment [5] (concentration 10 ppm), 100%; in experiment [5] (concentration 50 ppm), 100%. In experiment [6] (concentration 50 ppm), the “RSB (Fungicidal Activities, C.V.)” value was found to be 65%.
For `COC=C(C(=O)OC)c1ccccc1CON=C(C)c1cccc(OC(F)=Cc2ccc(OC)cc2)c1` [Compound 48], the “WLR (Fungicidal Activities, C.V.)” value in experiment [1] (concentration 2 ppm) turned out to be 99%; in experiment [1] (concentration 10 ppm), 100%; in experiment [1] (concentration 50 ppm), 100%. Further, the “CGM (Fungicidal Activities, C.V.)” value in experiment [2] is listed as 64%. Moreover, the “RCV (Fungicidal Activities, C.V.)” value was found to be 41% in experiment [3] (concentration 2 ppm), 96% in experiment [3] (concentration 10 ppm) and 100% in experiment [3] (concentration 50 ppm). In addition, the “TLB (Fungicidal Activities, C.V.)” value in experiment [4] came out at 95%. For the same compound, the “BPM (Fungicidal Activities, C.V.)” value in experiment [5] (concentration 2 ppm), in experiment [5] (concentration 10 ppm) and in experiment [5] (concentration 50 ppm) was 100% throughout. Moreover, in experiment [6] (concentration 50 ppm), the “RSB (Fungicidal Activities, C.V.)” value was 75%.
Turning to `COC=C(C(=O)OC)c1ccccc1CON=C(C)c1cccc(OC(F)=Cc2ccc(F)cc2)c1` [Compound 51], the “WLR (Fungicidal Activities, C.V.)” value in experiment [1] (concentration 10 ppm) and in experiment [1] (concentration 50 ppm) was 100% throughout. Further, the “CGM (Fungicidal Activities, C.V.)” value in experiment [2] turned out to be 52%. The “RCV (Fungicidal Activities, C.V.)” value in experiment [3] (concentration 10 ppm) is listed as 99%; in experiment [3] (concentration 50 ppm) it was 100%. In addition, the “TLB (Fungicidal Activities, C.V.)” value in experiment [4] worked out at 97%. The “BPM (Fungicidal Activities, C.V.)” value in experiment [5] (concentration 10 ppm) and in experiment [5] (concentration 50 ppm) was 100% throughout. Further, the “RSB (Fungicidal Activities, C.V.)” value in experiment [6] (concentration 10 ppm) is given as 88%; in experiment [6] (concentration 50 ppm), 90%.
With `COC=C(C(=O)OC)c1ccccc1CON=C(C)c1cccc(OC(F)=Cc2ccc(Cl)c(C)c2)c1` [Compound 52], the “WLR (Fungicidal Activities, C.V.)” value in experiment [1] (concentration 10 ppm) is listed as 96%; in experiment [1] (concentration 50 ppm), 100%. In experiment [2], the “CGM (Fungicidal Activities, C.V.)” value was found to be 52%. The “RCV (Fungicidal Activities, C.V.)” value in experiment [3] (concentration 10 ppm) is 80%; in experiment [3] (concentration 50 ppm) it was 97%. Also, the “TLB (Fungicidal Activities, C.V.)” value in experiment [4] is recorded as 42%. The “BPM (Fungicidal Activities, C.V.)” value in experiment [5] (concentration 10 ppm) and in experiment [5] (concentration 50 ppm) was 100% each time. Also, in experiment [6] (concentration 50 ppm), the “RSB (Fungicidal Activities, C.V.)” value was found to be 65%.

Values taken from US6552080B1, “Fungicidal compounds having a fluorovinyl-or fluoropropenyl-oxyphenyloxime moiety and process for the preparation thereof” (Korea Research Institute of Chemical Technology, priority 1999, dated 2003).
